Experimental data: US20250325548A1, “TUMOR SUPPRESSOR P73 TRANSCRIPTIONALLY REGULATES C-FLIP TO IMPEDE ITS PRIMING OF EXTRINSIC APOPTOSIS WHILE AN EXAMPLE SWITCHER COMPOUND CB-7587351 DEGRADES C-FLIP PROTEIN” (Brown University, priority 2024, published 2025)
Where a SMILES comes first, the peptide text is derived from it. The star is where a group is joined. Cbz = O=C(OCc1ccccc1)*; CH2F = FC*

Columns and labels:
c-FLIP [1] = assay: Western blot of c-FLIP protein levels in cancer cells; format: cell-based, human
Description: (§1) Western Blot analysis: An equal amount of protein in the cell lysate was loaded in each well and electrophoresed through 4-12% SDS-PAGE then transferred to a PVDF membrane. The primary antibodies indicated in the FIGs. were incubated with the PVDF membrane after transfer in blocking buffer at 4° C. overnight. Antibody binding was detected on PVDF with appropriate IR Dye-secondary antibodies (LI-COR Biosciences, USA) by the ODYSSEY infrared imaging system or with ECL Reagent (Thermo Fisher Scientific, catalog no. 32106) chemiluminescence reaction with appropriate horseradish peroxidase (HRP)-conjugated secondary antibodies (Thermo Fisher Scientific, catalog no. no. 31460 for Goad anti-rabbit IgG and catalog no. 31430 for Goat anti-mouse IgG) by the Syngene imaging system.

c-FLIP [2] = assay: Real-time PCR of c-FLIP mRNA in cancer cells; format: cell-based, human; conditions: cancer cells treated with CB-7587351, Real-time PCR
p53 reporter, PG13-luc = assay: PG13-luc p53-reporter bioluminescence assay; format: cell-based, human
Description: Materials and Methods; High-Throughput Screening: Functional cell-based screening for small molecules that increase p53-transcriptional activity was performed as described in the previous study using noninvasive bioluminescence imaging in human colorectal cancer cells which stably express a p53 reporter, PG13-luc. […] DMSO treatment was used as a negative control in each screened plate. Compounds that increased p53-responsive bioluminescence were selected for secondary screening.

p53 targets = assay: Western blot of endogenous p53 targets; format: cell-based, human
Description: as §1

p53 target genes = assay: Real-time RT-PCR of p53 target genes; format: cell-based, human; conditions: SW480 cells, 3 hr, normalized to GAPDH
γ-H2AX = γ-H2AX phosphorylation (DNA damage) in SW480 cells; format: cell-based, human
DNA = assay: DNA-intercalation test; conditions: not shown
[3] = tested on: panel of cancer cell lines; assay: CellTiter-Glo cell viability, panel of cancer cell lines versus MRC-5; format: cell-based, human; conditions: cancer cells compared with normal fibroblast MRC-5 cells, 48 hr
Description: […] Cell viability was measured by CellTiter-Glo bioluminescence (Promega, catalog no. G7572), and analyzed using an IVIS imager.

cancer cells [4] = assay: Sub-G1 flow cytometric assay in cancer cells; format: cell-based, human
Description: Flow Cytometry Assay: Briefly, cells were fixed with 70% ethanol, and stained with Propidium Iodide (PI), then subjected for CytoFLEX to measure DNA content of the PI-stained cells. Cell cycle distribution was analyzed with Flowjo.

colorectal cancer cells = assay: Colony formation assay; format: cell-based, human
caspase-3 = assay: Western blot of cleaved caspase-3; format: cell-based, human; conditions: cancer cells, early time points
Description: as §1

caspase-3/7 = assay: Caspase-3/7 activity assay; format: cell-based, human; conditions: DLD-1 cancer cells, 36 hours
p53-mutant cancer cells = assay: Apoptosis by PARP cleavage and Annexin V after caspase knockdown; format: cell-based, human; conditions: CB-7587351 at 10 μM
Description: Annexin V levels were measured using RealTime-Glo™ Annexin V assay kit (Promega). The bioluminescent Annexin V was analyzed using an IVIS imager.
as §1
Knockdown of gene expression by siRNA: Cells were transfected with siRNA using lipofectamine RNAiMAX (Life Technologies, catalog no. 13778075) as described in the protocol from the manufacturer.

cancer cells [5] = assay: Cell viability and synergy assay with TRAIL in cancer cells; format: cell-based, human; conditions: tested doses
Description: (§2) CellTiter-Glo luminescent Cell viability assay: Cells were seeded on 96-well plates with a density of 3000 cells/well and treated with small molecule compounds as desired for 72 hours. Cell viability was measured by CellTiter-Glo bioluminescence (Promega, catalog no. G7572), and analyzed using an IVIS imager.
(§3) Statistical analysis: Statistical analyses were performed using the student's t-test or Anova with GraphPad Prism software. Statistical significance was determined by p<0.05. Combination indices were calculated using the Chou-Talalay method with CompuSyn software.

normal cells = assay: Cell viability and synergy assay with TRAIL in normal cells; format: cell-based; conditions: tested doses
Description: as §2, §3

PARP = assay: Western blot of cleaved PARP with TRAIL combination; format: cell-based, human; conditions: cancer cells
Description: as §1

p73 = molecular target: T1, p73 (Homo sapiens, UniProt O15350); conditions: via releasing it from the inhibitory complex of mutant p53; cited from earlier work
T1 sequence (O15350 1-636): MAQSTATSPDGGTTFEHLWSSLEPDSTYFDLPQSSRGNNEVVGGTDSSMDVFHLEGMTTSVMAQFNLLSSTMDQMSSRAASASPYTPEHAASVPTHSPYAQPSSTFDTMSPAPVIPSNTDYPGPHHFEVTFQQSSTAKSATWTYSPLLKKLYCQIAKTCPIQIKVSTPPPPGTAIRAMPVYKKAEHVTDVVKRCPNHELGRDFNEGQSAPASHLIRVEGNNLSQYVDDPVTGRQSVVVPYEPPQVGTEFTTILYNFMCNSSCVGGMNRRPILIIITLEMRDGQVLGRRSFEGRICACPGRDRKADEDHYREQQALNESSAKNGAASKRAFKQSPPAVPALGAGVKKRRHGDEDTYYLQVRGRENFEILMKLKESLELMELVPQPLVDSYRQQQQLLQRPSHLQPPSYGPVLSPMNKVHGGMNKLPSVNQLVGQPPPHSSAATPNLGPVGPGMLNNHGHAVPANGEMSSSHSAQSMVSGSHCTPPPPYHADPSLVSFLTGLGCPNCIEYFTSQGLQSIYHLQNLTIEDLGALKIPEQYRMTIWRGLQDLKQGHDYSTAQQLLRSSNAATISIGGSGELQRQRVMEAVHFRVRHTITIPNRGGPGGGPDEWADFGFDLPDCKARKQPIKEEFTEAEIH

CCOc1cccc2c(C)nc(Nc3nc(=O)c4c([nH]3)CCCC4)nc12 [CB-7587351, 2-(8-Ethoxy-4-methyl-2-quinazolinylamino)-5,6,7,8-tetrahydro-4 (1H)-quinazolinone]
c-FLIP degradation after knockdown of CHIP or ITCH (c-FLIP [1]; SW480, siRNA 48 hr then CB-7587351 8 hr): could not rescue c-FLIP | p73-mediated upregulation of c-FLIP protein (c-FLIP [1]; SW480 cells with overexpression of p73, treatment 8 hr): reduced p73-mediated upregulation of c-FLIP protein | c-FLIP protein expression (c-FLIP [1]; p53-mutant and p53 wild-type cancer cells, Western blot): reduced c-FLIP protein expression | c-FLIP expression at the mRNA level (c-FLIP [2]): no significant changes | p53-responsive bioluminescence (p53 reporter, PG13-luc; SW480, DLD1, HCT116 p53-/- and HCT116, dose dependent): strongly induced | effect on PG13-luc reporter with overexpression of p73-β or wild-type p53 (p53 reporter, PG13-luc; adenovirus infection, then CB-7587351 16 hr): further enhanced | PG-13-luciferase reporter after siRNA targeting p73 (p53 reporter, PG13-luc; p53-KO cancer cells): attenuated | p21 and puma expression after knockdown of p73 (p53 targets; DLD-1 cells, 8 hr): blocked the activation effect | endogenous p53 targets at the protein level (p53 targets; p53-mutant and wild colorectal cancer cell lines, 16 hr): increased | selected p53 targets at the mRNA level (p53 target genes): slight increase | phosphorylation of γ-H2AX (γ-H2AX; SW480 cells, increased dose, early time points): No phosphorylation | genotoxicity (γ-H2AX; conclusion from γ-H2AX and DNA-intercalation): little or no genotoxicity | DNA-intercalation (DNA): no DNA-intercalation was detected | IC50s, cell viability [3]: much lower in cancer cells than those in normal fibroblast MRC-5 cells | sub-G1 content and Annexin V levels with overexpression of p73 (cancer cells [4]; Ad-p73 infection, 48 hr (sub-G1), 24 hours (Annexin)): enhanced the anti-tumor effect | sub-G1 content and PARP cleavage after knockdown of p73 (cancer cells [4]; DLD-1 cells, 72 hr (sub-G1), 48 h (PARP)): abrogated the effect | sub-G1 content (cancer cells [4]; cancer cells, 48 hr): increase in sub-G1 content | colony formation (colorectal cancer cells): dramatically reduced | cleaved caspase-3 (caspase-3): increase | caspase-3/7 activity (caspase-3/7): increase | apoptosis (PARP cleavage, Annexin V) after knockdown of caspase-8 (p53-mutant cancer cells): prevented apoptosis | synergy with TRAIL on cell viability (cancer cells [5]): synergized with TRAIL | synergy with TRAIL on cell viability (normal cells): not in normal cells | TRAIL-induced PARP cleavage (PARP): enhanced TRAIL-induced PARP cleavage

CC(C)C[C@@H](C=O)NC(=O)[C@H](CC(C)C)NC(=O)[C@H](CC(C)C)NC(=O)OCc1ccccc1 [MG132, reference compound] (Cbz-Leu-Leu-Leu-aldehyde)
c-FLIP protein under CB-7587351 plus proteasome inhibitor (c-FLIP [1]; cancer cells co-treated with MG132 and CB-7587351): rescued c-FLIP from the CB-7587351-induced protein degradation

CN1CCN(C(=O)/C=C/c2ccc([N+](=O)[O-])o2)CC1 [NSC59984, (E)-1-(4-Methyl-1-piperazinyl)-3-(5-nitro-2-furyl)-2-propen-1-one]
activation of p73 (p73): activate p73

O=C(CSC1=NCCS1)c1ccc(O)c(O)c1 [RETRA, 2-(4,5-Dihydro-1,3-thiazol-2-ylthio)-1-(3,4-dihydroxyphenyl)-1-ethanone]
activation of p73 (p73): activate p73

COC(=O)C[C@H](NC(=O)[C@H](C)NC(=O)[C@@H](NC(=O)OCc1ccccc1)C(C)C)C(=O)CF [z-VAD-FMK, reference compound] (Cbz-Val-Ala-Asp(OMe)-CH2F)
CB-7587351-induced apoptosis with pan-caspase inhibitor (sub-G1 assay) (cancer cells [4]; SW480, HT29, HCT116 p53-/- and HCT116): blocked the effect of CB-7587351 on apoptosis
